Reference: patent US20230123334A1, “AMINO LIPID COMPOUND, PREPARATION METHOD THEREFOR, AND APPLICATION THEREOF” (SHENZHEN SHENXIN BIOTECHNOLOGY CO., LTD., priority 2020, published 2023)

Key:
HEK293 cells [1] = assay: Preliminary screening as DNA vectors, GFP transfection of HEK293 cells; format: cell-based; conditions: HEK293 cells; lipid/DOPE liposome with 75 ng plasmid DNA (psin-EGFP-IRES-Puro); number of cells expressing GFP divided by total number of nuclei (Hoechst)
Procedure, shortened: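 First, amino lipid and DOPE were vortexed in sodium acetate buffer (pH 5.6) to form liposomes. Next, these were held with 75 ng EGFP plasmid at room temperature for 30 min. Finally, HEK293 cells were added, cultured at 37° C., Hoechst-stained, and GFP+/total nuclei scored by imaging.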

HEK293 cells [2] = assay: Preliminary screening as mRNA vectors, EGFP mRNA transfection of HEK293 cells; format: cell-based; conditions: HEK293 cells, 96-well plates, EGFP mRNA 50 ng per well; percentage of GFP fluorescent cells relative to total number of cells (Hoechst)
Procedure, shortened: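 Screening format: EGFP mRNA transfection (50 ng/well) into HEK293 in 10% FBS-supplemented DMEM. Percent green fluorescent cells, normalised to Hoechst nuclear count, gave the value; Lipofectamine2000 was the reference transfectant.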

Compound	Absolute DNA transfection efficiency in HEK293 cells (HEK293 cells [1]) [%]	Absolute mRNA transfection efficiency in HEK293 cells (HEK293 cells [2]) [%]
CCCCCCCCCCCCCCCNc1nc(NCCN(C)C)nc(N(CCCCCCCCCCCC)CCCCCCCCCCCC)n1 [N15^2N12D1]	0.9	0.0
CCCCCCCCCCCCCCCNc1nc(NCCCN2CCOCC2)nc(N(CCCCCCCCCCCC)CCCCCCCCCCCC)n1 [N15^2N12D8]	0.9	0.9
CCCCCCCCCCCCNc1nc(NCCCCCCCCCCC)nc(NCCCN2CCOCC2)n1 [Compound N11N12D8]	0.0	2.8
CCCCCCCCCCCCN(CCCCCCCCCCCC)c1nc(NCCCCCCCC)nc(NCCN(CC)CC)n1 [N8^2N12D7]	0.0	0.0
CCCCCCCCCCCCCCCCCCSc1nc(NCCN2CCOCC2)nc(SCCCCCCCC)n1 [Compound S8S18D2]	0.9	0.0
CCCCCCCCCNc1nc(NCCCCCC)nc(NCCN2CCN(C)CC2)n1 [Compound N6N9D5]	0.0	0.1
CCCCCCCCCCCCNc1nc(NCCCCCCCCC)nc(NCCN2CCOCC2)n1 [Compound N9N12D2]	0.0	0.8
CCCCCCCCCCSc1nc(NCCCN2CCN(C)CC2)nc(SCCCCCCCCCC)n1 [Compound S10S10D9]	13.4	51.3
CCCCCCCCCCCCCCCSc1nc(NCCN2CCCCC2)nc(SCCCCCCCCCCCCCCC)n1 [Compound S15S15D4]	1.5	1.5
CCCCCCCCCCCCCNc1nc(NCCCCCCCCCCCC)nc(NCC2CCN(C)CC2)n1 [Compound N12N13D10]	0.2	0.2
CCCCCCCCCCCCCCCCCCSc1nc(NCCCN2CCN(C)CC2)nc(SCCCCCCCCC)n1 [Compound S9S18D9]	0.0	4.0
CCCCCCCCCCCCCCCCCCSc1nc(NCCN(CC)CC)nc(SCCCCCCCCCCC)n1 [Compound S11S18D7]	3.6	1.1
CCCCCCCCNc1nc(NCCCCCCC)nc(NCCN2CCCCC2)n1 [Compound N7N8D4]	0.2	0.0
CCCCCCCCCNc1nc(NCCCCCCCC)nc(NCCN2CCCC2)n1 [Compound N8N9D3]	0.5	0.5
CCCCCCCCCCCCCCCCCCNc1nc(NCCCCCCCCCCCCCCCCCC)nc(NCCN2CCCCC2)n1 [Compound N18N18D4]	0.9	0.0
CCCCCCCCCCCCCCCSc1nc(NCC2CCN(C)CC2)nc(SCCCCCCCCCCCCCC)n1 [Compound S14S15D10]	0.3	0.5
CCCCCCCCNc1nc(NCCCCCCC)nc(NCCCN2CCOCC2)n1 [Compound N7N8D8]	0.0	0.0
CCCCCCCCCCCCCCCNc1nc(NCCCCCCCCC)nc(NCCCN(C)C)n1 [Compound N9N15D6]	0.0	1.7

Compound	Absolute DNA transfection efficiency in HEK293 cells (HEK293 cells [1]) [%]	Absolute mRNA transfection efficiency in HEK293 cells (HEK293 cells [2]) [%]
CCCCCCCCCCCCCCCNc1nc(NCCCCCCCCCCCC)nc(NCCCN2CCN(C)CC2)n1 [Compound N12N15D9]	1.5	0.9
CCCCCCCCCCCCCNc1nc(NCCCCCC)nc(NCCCN2CCN(C)CC2)n1 [Compound N6N13D9]	0.0	0.0
CCCCCCCCCCCCCCCCSc1nc(NCCCN2CCN(C)CC2)nc(SCCCCCCCCCCCCCC)n1 [Compound S14S16D9]	0.0	0.0
CCCCCCCCCCCCCCCCSc1nc(NCCN2CCCCC2)nc(SCCCCCCCCCCCCCCC)n1 [Compound S15S16D4]	2.0	3.2
CCCCCCCCCCCCCCCCCCSc1nc(NCCN(C)C)nc(SCCCCCCCCCCCC)n1 [Compound S12S18D1]	0.0	0.0
CCCCCCCCCCCCCCCNc1nc(NCCCCCCCC)nc(NCCN2CCCC2)n1 [Compound N8N15D3]	1.5	7.6
CCCCCCCCCCCNc1nc(NCCCCCCCCC)nc(NCCN2CCOCC2)n1 [Compound N9N11D2]	0.0	0.3
CCCCCCCCCCCNc1nc(NCCCCCCC)nc(NCCCN2CCN(C)CC2)n1 [Compound N7N11D9]	0.1	0.0
CCCCCCCCCCCCCCCCNc1nc(NCCCCCC)nc(NCCCN2CCN(C)CC2)n1 [Compound N6N16D9]	0.0	0.0
CCCCCCCCCCCCNc1nc(NCCN2CCCCC2)nc(N(CCCCCCCCCCCC)CCCCCCCCCCCC)n1 [N12^2N12D4]	2.5	2.6
CCCCCCCCCCCCCCCCCCSc1nc(NCC2CCN(C)CC2)nc(SCCCCCCCCCCCCCCCCCC)n1 [Compound S18S18D10]	0.0	0.0
CCCCCCCCCCCCN(CCCCCCCCCCCC)c1nc(NCCCCCCCCC)nc(NCCN2CCN(C)CC2)n1 [N9^2N12D5]	0.0	1.8
CCCCCCCCCCCCCCCCNc1nc(NCCCCCC)nc(NCCN2CCCCC2)n1 [Compound N6N16D4]	0.0	0.0
CCCCCCCCNc1nc(NCCCCCCCC)nc(NCC2CCN(C)CC2)n1 [Compound N8N8D10]	0.0	0.0
CCCCCCCCCCCCCCSc1nc(NCCN2CCOCC2)nc(SCCCCCCCCCCC)n1 [Compound S11S14D2]	0.7	0.0
CCCCCCCCCCCCCCSc1nc(NCC2CCN(C)CC2)nc(SCCCCCCCCCCCCCC)n1 [Compound S14S14D10]	0.9	1.5
CCCCCCCCCCCCNc1nc(NCCCCCCC)nc(NCCN2CCCCC2)n1 [Compound N7N12D4]	0.0	0.6
CCCCCCCCCCCCCCCCSc1nc(NCCCN(C)C)nc(SCCCCCCCCCCCC)n1 [Compound S12S16D6]	2.7	1.2
